Key:
[1] = molecular target: T1, retinoic acid receptor (RAR) (Homo sapiens, UniProt P10276); assay: Receptor binding assay using human promyelocytic leukemia cell HL60 (nuclear extract), inhibition of 3H-all-trans retinoic acid binding to RAR; conditions: HL60 cell nucleus extract, 4° C., 16 hours
T1 construct: by the use of an extract from HL 60 cell nuclei; endogenous in cells; host or cells: HL60 human promyelocytic leukemia cells, 0.8 M KCl nuclear extract
T1 sequence (P10276 1-462): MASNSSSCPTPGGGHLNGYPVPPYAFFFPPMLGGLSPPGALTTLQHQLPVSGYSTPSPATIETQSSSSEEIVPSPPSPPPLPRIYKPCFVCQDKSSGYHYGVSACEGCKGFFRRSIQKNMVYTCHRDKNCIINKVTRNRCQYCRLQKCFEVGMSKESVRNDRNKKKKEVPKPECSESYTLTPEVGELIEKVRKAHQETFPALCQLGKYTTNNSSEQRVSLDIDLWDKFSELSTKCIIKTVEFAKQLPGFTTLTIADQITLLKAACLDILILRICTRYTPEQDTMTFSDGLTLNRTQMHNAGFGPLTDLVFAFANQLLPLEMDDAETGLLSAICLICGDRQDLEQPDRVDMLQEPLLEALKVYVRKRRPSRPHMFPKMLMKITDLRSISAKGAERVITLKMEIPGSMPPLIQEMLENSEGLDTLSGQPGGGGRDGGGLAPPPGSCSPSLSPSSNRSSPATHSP
Method: Receptor binding assay using human promyelocytic leukemia cell, HL60
It has been known that a receptor for all-trans retinoic acid [i.e., retinoic acid receptor (RAR)] is present in the nucleus of HL 60 cell (see Clara Nervi et al., Proc. Natl. Acad. Sci. USA, 86, 5854 (1989)). Therefore, the extent of specific binding of all-trans retionic acid to RAR was determined by the use of an extract from HL 60 cell nuclei; and the ability of each compound to bind to RAR was determined based on the inhibitory activity of the compound against the above specific binding.
The above cell nucleus extract was prepared as follows.
HL 60 cells (5×10^8) were suspended in 15 ml of a solution A [comprising 5 mM of sodium phosphate (pH: 7.4), 10 mM of monothioglycerol,10% (v/v) of glycerol, 1 mM of phenylmethylsulfonyl fluoride (PMSF), 10 μg/ml of aprotinin and 25 μg/ml of leupeptin). The obtained suspension was homogenized with a homogenizer and centrifuged to remove a formed supernatant. The obtained sediment was suspended in 15 ml of a solution B [comprising 10 mM of Tris-HCl (pH: 8.5), 10 mM of monothioglycerol, 10% (v/v) of glycerol, 1 mM of PMSF, 10 μg/ml of aprotinin, 25 μg/ml of leupeptin and 0.8 M of KC1]. The obtained suspension was allowed to stand at 4° C. for one hour and ultracentrifuged (under the conditions of 100,000×g and 4° C. for one hour). The supernatant thus obtained was stored in a state freezed at -80° C. and used as the cell nucleus extract [see Methods in Enzymology, 189: 248).
The receptor binding assay was conducted as follows.
180 μl of the above extract and 10 μl of a dilution of all-trans retionic acid or a compound to be tested were put in each well of a 96-well polypropylene plate, followed by the addition thereto of ^3 H-all-trans retionic acid in an amount of 10 μl/well. The plate was allowed to stand at 4° C. for 16 hours. A solution containing 3% of charcoal and 0.3% of dextran was added to the reaction mixture in the well and the obtained mixture was centrifuged to remove free ^3 H-all-trans retionic acid. The intensity of radiation of the supernatant was determined with a scintillation counter. The extent of specific binding of all-trans retinoic acid to RAR was determined by taking the intensity of radiation, observed when 200-fold excess of all-trans retinoic acid was added, as that of a nonspecific binding, and substracting the intensity of radiation thus taken from that of the one determined above.

HL60 cell = assay: Antagonism against all-trans retinoic acid in inducing the differentiation of HL60 cell (CD11b-positive cells, flow cytometry); type: cell-based; conditions: Homo sapiens, HL-60, 120 h, all-trans retinoic acid 30 nM, 5 days
Source text: Antagonism against all-trans retinoic acid in inducing the differentiation of HL60 cell
It has been known that a human promyelocytic leukemia cell strain HL60 is differentiated into granulocytic cells in the presence of all-trans retinoic acid (see Breitman, T., Selonick, S., and Collins, S., Proc. Natl. Acad. Sci. USA, 77, 2936(1980)). Generally, a cell forms a specific differentiation antigen on its surface, when it has achieved differentiation. When an HL60 cell is differentiated into a granulocytic cell, CD11b which is an antigen discriminating granulocyte or monocute is formed on the surface of the cell (see Fontana, J. A., Reppuci, A., Durham, J. P., and Mirand, D., Cancer Res. 46, 2469 to 2473 (1986)). The antagonism against the differentiation of HL60 into granulocytic cell which is induced by all-trans retionic acid was studied by utilizing the above phenomenon.
HL60 cells were cultured and maintained in a culture medium prepared by adding 10% of inactivated bovine fetus serum, 1 mM of sodium pyruvate, 50 μM of β-mercaptoethanol, 100 I.U./ml of penicillin and 100 μg/ml of streptomycin to RPMI1640 (a culture medium formulated in Rosewell Park Memorial Institute).
The resulting plate was incubated in an incubator (5% CO2 /air) for 5 days. After the incubation, the cells of each well were recovered into a test tube, followed by the addition thereto of an FITC-labeled monoclonal antibody reactive with CD11b which is an antigen specific to granulocyte or monocute. The resulting cells were immobilized with 0.2% paraformaldehyde. The immobilized cell suspension was examined by flow cytometry for the proportion of CD11b-positive cells in the above HL60 cell group in each well (see Miller, L. J., Schwarting, R., and Springer, T. A., J. Immunol. 137, 2891 to 2900 (1986)).

IC50 [1] [nM] | IC50 (HL60 cell) [nM] | Structure (SMILES)
< 0.5 | 120 | CC1(C)CCC(C)(C)c2cc3c(cc21)CCc1c(-c2ccc(C(=O)O)cc2)cn(Cc2cccnc2)c1-3 [Example 16, 4-[4,5,7,8,9,10-Hexahydro-7,7,10,10-tetramethyl-1(3-pyridylmethyl)anthra[1,2-b]pyrrol-3-yl]benzoic acid]
4 | 700 | CCn1nc(-c2ccc(C(=O)O)cc2)c2c1-c1cc3c(cc1CC2)C(C)(C)CCC3(C)C [Example 1, 4-(1-Ethyl-4,5,7,8,9,10-hexahydro-7,7,10,10-tetramethylanthra[2,1-d]pyrazol-3yl)benzoic acid]
4.2 | 2700 | CC1(C)CCC(C)(C)c2cc3c(cc21)CCc1c(-c2ccc(C(=O)O)cc2)cn(-c2ccccc2)c1-3 [Example 18]
32 | 14000 | CCCCCn1cc(-c2ccc(C(=O)O)cc2)c2c1-c1cc3c(cc1CC2)C(C)(C)CCC3(C)C [Example 22]
9 | 1200 | Cn1nc(-c2ccc(C(=O)O)cc2)c2c1-c1cc3c(cc1SC2)C(C)(C)CCC3(C)C [Example 11]
50 | 6700 | CC(C)n1nc(-c2ccc(C(=O)O)cc2)c2c1-c1cc3c(cc1CC2)C(C)(C)CCC3(C)C [Example 2]
9 | 7200 | CCCCCCCOc1cc2c(cc1/C(C)=C/c1ccc(C(=O)O)cc1)C(C)(C)CCS2(=O)=O [Example R041-5253, reference compound]
< 0.5 | 1000 | CC1(C)CCC(C)(C)c2cc3c(cc21)CCc1c(-c2ccc(C(=O)O)cc2)nn(Cc2ccccc2)c1-3 [Example 4]
0.5 | 480 | CC1(C)CCC(C)(C)c2cc3c(cc21)CCc1c(-c2ccc(C(=O)O)cc2)cn(-c2cccnc2)c1-3 [Example 19]
22 | 560 | Cn1nc(-c2ccc(C(=O)O)cc2)c2c1-c1cc3c(cc1CC2)C(C)(C)CCC3(C)C [Example 7, 4-(4,5,7,8,9,10-Hexahydro-1,7,7,10,10-pentamethylanthra[2,1-d]pyrazol-3-yl)benzoic acid]
26 | 3800 | CC1(C)CCC(C)(C)c2cc3c(cc21)CCc1c(-c2ccc(C(=O)O)cc2)coc1-3 [Example 106, 4-(4,5,7,8,9,10-Hexahydro-7,7,10,10-tetramethylanthra-[1,2-b]furan-3-yl)benzoic acid]
50 | 2200 | Cn1nc(-c2ccc(C(=O)O)cc2)c2ccc3cc4c(cc3c21)C(C)(C)CCC4(C)C [Example 14, 4-(7,8,9,10-Tetrahydro-1,7,7,10,10-pentamethylanthra-[2,1-d]pyrazol-3-yl)benzoic acid]

From patent US5612356A, “Heterocycle-containing carbonic acid derivatives” (Eisai Co., Ltd., priority 1992, dated 1997)
